Laboratory results from ChEMBL document CHEMBL1201862, “PubChem BioAssay data set” (2004).
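In this assay, cells in 96-well plates receive the compound at five concentrations for 48 hours. Endpoints are linearly interpolated between the surrounding concentrations. GI50 = concentration required for 50% inhibition of growth.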 Activity calls are given as the source filed them. Rule as the data show it: active = GI50 up to about 1.1 µM and inactive = higher.

Tests used:
Assay in all cases: NCI-60 cell line screen, 48 h
786-0 = tested on: 786-0
A549 = tested on: A549
ACHN = tested on: ACHN
BT-549 = tested on: BT-549
CAKI-1 = tested on: CAKI-1
CCRF-CEM = tested on: CCRF-CEM
COLO 205 = tested on: COLO 205
EKVX = tested on: EKVX
HCC 2998 = tested on: HCC 2998
HCT-116 = tested on: HCT-116
HOP-62 = tested on: HOP-62
HOP-92 = tested on: HOP-92
HT-29 = tested on: HT-29
Hs-578T = tested on: Hs-578T
IGROV-1 = tested on: IGROV-1
K562 = tested on: K562
KM12 = tested on: KM12
LOX IMVI = tested on: LOX IMVI
M14 = tested on: M14
MCF7 = tested on: MCF7
MDA-MB-231 = tested on: MDA-MB-231
MDA-MB-435 = tested on: MDA-MB-435
MDA-N = tested on: MDA-N
MOLT-4 = tested on: MOLT-4
Malme-3M = tested on: Malme-3M
NCI-H226 = tested on: NCI-H226
NCI-H23 = tested on: NCI-H23
NCI-H460 = tested on: NCI-H460
NCI-H522 = tested on: NCI-H522
NCI/ADR-RES = tested on: NCI/ADR-RES
OVCAR-3 = tested on: OVCAR-3
OVCAR-4 = tested on: OVCAR-4
OVCAR-5 = tested on: OVCAR-5
OVCAR-8 = tested on: OVCAR-8
PC-3 = tested on: PC-3
SF-268 = tested on: SF-268
SF-295 = tested on: SF-295
SF-539 = tested on: SF-539
SK-MEL-28 = tested on: SK-MEL-28
SK-MEL-5 = tested on: SK-MEL-5
SK-OV-3 = tested on: SK-OV-3
SN12C = tested on: SN12C
SNB-19 = tested on: SNB-19
SNB-75 = tested on: SNB-75
SR = tested on: SR
SW-620 = tested on: SW-620
T47D = tested on: T47D
TK-10 = tested on: TK-10
U-251 = tested on: U-251
UACC-257 = tested on: UACC-257
UACC-62 = tested on: UACC-62
UO-31 = tested on: UO-31
A498 = tested on: A498
DU-145 = tested on: DU-145
HCT-15 = tested on: HCT-15
HL-60 = tested on: HL-60
RPMI-8226 = tested on: RPMI-8226
RXF 393 = tested on: RXF 393
SK-MEL-2 = tested on: SK-MEL-2

For `C(/C=N/N=C1NCCCN1)=N\N=C1NCCCN1`, the GI50 (786-0) was > 100 µM (inactive), the GI50 (A549) was > 100 µM (inactive) and the GI50 (ACHN) was > 100 µM (inactive). For the same molecule, the GI50 (BT-549) was > 100 µM (inactive), the GI50 (CAKI-1) was > 100 µM (inactive) and the GI50 (CCRF-CEM) was > 100 µM (inactive). For the same molecule, the GI50 (COLO 205) was > 100 µM (inactive), the GI50 (EKVX) was > 100 µM (inactive) and the GI50 (HCC 2998) was > 100 µM (inactive). The GI50 (HCT-116) was > 100 µM (inactive), the GI50 (HOP-62) was > 100 µM (inactive) and the GI50 (HOP-92) was 56.5 µM (inactive). For the same molecule, the GI50 (HT-29) was > 100 µM (inactive), the GI50 (Hs-578T) was > 100 µM (inactive) and the GI50 (IGROV-1) was > 100 µM (inactive). The GI50 (K562) was > 100 µM (inactive), the GI50 (KM12) was > 100 µM (inactive) and the GI50 (LOX IMVI) was > 100 µM (inactive). For the same molecule, the GI50 (M14) was > 100 µM (inactive), the GI50 (MCF7) was > 100 µM (inactive) and the GI50 (MDA-MB-231) was > 100 µM (inactive). The GI50 (MDA-MB-435) was > 100 µM (inactive), the GI50 (MDA-N) was > 100 µM (inactive) and the GI50 (MOLT-4) was > 100 µM (inactive). For the same molecule, the GI50 (Malme-3M) was > 100 µM (inactive), the GI50 (NCI-H226) was > 100 µM (inactive) and the GI50 (NCI-H23) was > 100 µM (inactive). The GI50 (NCI-H460) was > 100 µM (inactive), the GI50 (NCI-H522) was > 100 µM (inactive) and the GI50 (NCI/ADR-RES) was > 100 µM (inactive). The GI50 (OVCAR-3) was > 100 µM (inactive), the GI50 (OVCAR-4) was > 100 µM (inactive) and the GI50 (OVCAR-5) was > 100 µM (inactive). For the same molecule, the GI50 (OVCAR-8) was > 100 µM (inactive), the GI50 (PC-3) was > 100 µM (inactive) and the GI50 (SF-268) was > 100 µM (inactive). The GI50 (SF-295) was > 10 µM (inactive), the GI50 (SF-539) was > 100 µM (inactive) and the GI50 (SK-MEL-28) was > 100 µM (inactive). The GI50 (SK-MEL-5) was > 100 µM (inactive), the GI50 (SK-OV-3) was > 100 µM (inactive) and the GI50 (SN12C) was > 100 µM (inactive). The GI50 (SNB-19) was > 100 µM (inactive), the GI50 (SNB-75) was > 100 µM (inactive) and the GI50 (SR) was > 100 µM (inactive). For the same molecule, the GI50 (SW-620) was > 100 µM (inactive), the GI50 (T47D) was > 100 µM (inactive) and the GI50 (TK-10) was > 10 µM (inactive). For the same molecule, the GI50 (U-251) was > 100 µM (inactive), the GI50 (UACC-257) was > 100 µM (inactive) and the GI50 (UACC-62) was > 100 µM (inactive). For the same molecule, the GI50 (UO-31) was > 100 µM (inactive).
For `COC(=O)c1cc(C)ccc1/C=C1\Cc2cccc(C)c2C1=O`, the GI50 (786-0) was 50.4 µM (inactive), the GI50 (A498) was 46.3 µM (inactive) and the GI50 (A549) was 28.2 µM (inactive). The GI50 (ACHN) was 38.7 µM (inactive), the GI50 (BT-549) was 17.6 µM (inactive) and the GI50 (CAKI-1) was 49.2 µM (inactive). For the same molecule, the GI50 (CCRF-CEM) was 12.3 µM (inactive), the GI50 (DU-145) was 65.3 µM (inactive) and the GI50 (EKVX) was 33.1 µM (inactive). The GI50 (HCC 2998) was 47.5 µM (inactive), the GI50 (HCT-116) was 18.1 µM (inactive) and the GI50 (HCT-15) was 18.8 µM. For the same molecule, the GI50 (HL-60) was 19.7 µM (inactive), the GI50 (HOP-62) was 31.2 µM (inactive) and the GI50 (HOP-92) was 20.4 µM (inactive). The GI50 (HT-29) was 12.8 µM (inactive), the GI50 (Hs-578T) was 57.5 µM (inactive) and the GI50 (IGROV-1) was 76.9 µM (inactive). The GI50 (K562) was 9.02 µM (inactive), the GI50 (KM12) was 26.7 µM (inactive) and the GI50 (LOX IMVI) was 8.77 µM (inactive). For the same molecule, the GI50 (M14) was > 100 µM (inactive), the GI50 (MCF7) was 30.5 µM (inactive) and the GI50 (MDA-MB-231) was 26.7 µM (inactive). For the same molecule, the GI50 (MDA-N) was 11.1 µM (inactive), the GI50 (MOLT-4) was 9.35 µM (inactive) and the GI50 (Malme-3M) was 20.5 µM (inactive). For the same molecule, the GI50 (NCI-H226) was 58.3 µM (inactive), the GI50 (NCI-H23) was > 100 µM (inactive) and the GI50 (NCI-H460) was > 100 µM (inactive). For the same molecule, the GI50 (NCI-H522) was 10.5 µM (inactive), the GI50 (OVCAR-3) was 19.5 µM (inactive) and the GI50 (OVCAR-4) was 68.5 µM (inactive). For the same molecule, the GI50 (OVCAR-5) was 78.7 µM (inactive), the GI50 (OVCAR-8) was 14.1 µM (inactive) and the GI50 (PC-3) was 8.04 µM (inactive). For the same molecule, the GI50 (RPMI-8226) was 28.8 µM (inactive), the GI50 (RXF 393) was 61.9 µM (inactive) and the GI50 (SF-268) was 98.9 µM (inactive). For the same molecule, the GI50 (SF-295) was 30.9 µM (inactive), the GI50 (SF-539) was 67.3 µM (inactive) and the GI50 (SK-MEL-28) was 62.1 µM (inactive). For the same molecule, the GI50 (SK-MEL-5) was 7.06 µM (inactive), the GI50 (SN12C) was 4.9 µM (inactive) and the GI50 (SNB-19) was > 100 µM (inactive). The GI50 (SNB-75) was 35.1 µM (inactive), the GI50 (SR) was 24.7 µM (inactive) and the GI50 (SW-620) was 31.6 µM (inactive). For the same molecule, the GI50 (T47D) was 6.68 µM (inactive), the GI50 (TK-10) was > 100 µM (inactive) and the GI50 (U-251) was 36.6 µM (inactive). For the same molecule, the GI50 (UACC-257) was 22 µM (inactive) and the GI50 (UO-31) was 44.7 µM (inactive).
For `CC(C)c1nc2cc(C(F)(F)F)ccc2[nH]c1=O`, the GI50 (786-0) was 66.7 µM (inactive), the GI50 (A498) was 61.9 µM (inactive) and the GI50 (A549) was 53.6 µM (inactive). For the same molecule, the GI50 (ACHN) was 72.1 µM (inactive), the GI50 (BT-549) was > 100 µM (inactive) and the GI50 (CAKI-1) was 72.6 µM (inactive). The GI50 (CCRF-CEM) was 0.361 µM (active), the GI50 (COLO 205) was > 100 µM (inactive) and the GI50 (EKVX) was 7 µM (inactive). For the same molecule, the GI50 (HCC 2998) was > 100 µM (inactive), the GI50 (HCT-116) was 62.2 µM (inactive) and the GI50 (HCT-15) was over 100 µM. The GI50 (HL-60) was 54 µM (inactive), the GI50 (HOP-62) was 79.8 µM (inactive) and the GI50 (HOP-92) was 42.5 µM (inactive). The GI50 (HT-29) was 72.1 µM (inactive), the GI50 (Hs-578T) was 3.4 µM (inactive) and the GI50 (IGROV-1) was > 100 µM (inactive). The GI50 (K562) was > 100 µM (inactive), the GI50 (KM12) was > 100 µM (inactive) and the GI50 (M14) was > 100 µM (inactive). The GI50 (MCF7) was 85.9 µM (inactive), the GI50 (MDA-MB-231) was 69 µM (inactive) and the GI50 (MDA-MB-435) was > 100 µM (inactive). The GI50 (MDA-N) was > 100 µM (inactive), the GI50 (MOLT-4) was 75.3 µM (inactive) and the GI50 (Malme-3M) was > 100 µM (inactive). For the same molecule, the GI50 (NCI-H226) was 51.3 µM (inactive), the GI50 (NCI-H23) was > 100 µM (inactive) and the GI50 (NCI-H460) was > 100 µM (inactive). For the same molecule, the GI50 (NCI-H522) was 39 µM (inactive), the GI50 (NCI/ADR-RES) was 57.8 µM (inactive) and the GI50 (OVCAR-3) was 49.9 µM (inactive). The GI50 (OVCAR-4) was 94.8 µM (inactive), the GI50 (OVCAR-5) was > 100 µM (inactive) and the GI50 (OVCAR-8) was > 100 µM (inactive). For the same molecule, the GI50 (PC-3) was 77.8 µM (inactive), the GI50 (RPMI-8226) was > 100 µM (inactive) and the GI50 (RXF 393) was 49.1 µM (inactive). The GI50 (SF-268) was 88.5 µM (inactive), the GI50 (SF-295) was > 100 µM (inactive) and the GI50 (SF-539) was > 100 µM (inactive). The GI50 (SK-MEL-28) was > 100 µM (inactive), the GI50 (SK-MEL-2) was 62.1 µM (inactive) and the GI50 (SK-MEL-5) was 61.7 µM (inactive). The GI50 (SK-OV-3) was > 100 µM (inactive), the GI50 (SN12C) was > 100 µM (inactive) and the GI50 (SNB-19) was > 100 µM (inactive). The GI50 (SNB-75) was 34.4 µM (inactive), the GI50 (SR) was 43.3 µM (inactive) and the GI50 (SW-620) was > 100 µM (inactive). The GI50 (T47D) was > 100 µM (inactive), the GI50 (TK-10) was 70.6 µM (inactive) and the GI50 (U-251) was > 100 µM (inactive). For the same molecule, the GI50 (UACC-257) was > 100 µM (inactive), the GI50 (UACC-62) was 29.8 µM (inactive) and the GI50 (UO-31) was > 100 µM (inactive).
